Test results from US20240228633A9, “METHODS OF TREATING CANCER WITH PDGFR ALPHA INHIBITORS” (Eli Lilly and Company, priority 2021, published 2024).
Like-named read-outs stand apart in the source and are kept apart here.

Legend:
soft tissue sarcoma = conditions: clinical trials for treating soft tissue sarcoma; cited from earlier work
[1] = test system: advanced or metastatic soft tissue sarcoma; conditions: STS patients; for HR (95% CI), overall survival: Olaratumab + Doxorubicin vs Placebo + Doxorubicin
Experimental: Study Design: Patients with advanced or metastatic soft tissue sarcoma are treated with olaratumab (20 mg/kg loading dose on Days 1 and 8 of a 21-day cycle in Cycle 1, followed by 15 mg/kg on Days 1 and 8 in subsequent 21-day cycle) in combination with doxorubicin (75 mg/m^2 on Day 1) (“investigational cohort”) and compared to patients treated with placebo (on Days 1 and 8) plus doxorubicin (75 mg/m^2 on Day 1) (“control cohort”). Patients are treated for 8 cycles, followed by olaratumab monotherapy or placebo until evidence of progressive disease, unacceptable toxicity or death. […] Patients are assessed for median overall survival (OS).
Immunohistochemistry Assay to determine PDGFR/3 expression: For immunohistochemistry analysis, tumor tissue from patients is collected, formalin-fixed in 10% neutral buffered formalin, and paraffin-embedded (FFPE). PDGFRβ protein expression on tumor cells is assessed by immunohistochemistry. Briefly, from FFPE tissue blocks containing the patient tumor tissue, a 4-6 micrometer section is obtained and placed on a positively charged glass slide. Anti-PDGFRβ mouse monoclonal antibody 2B3 is used to detect expression of PDGFRβ (clone 2B3, Cell Signaling Technology® catalog number 3175S), diluted in Dako Primary Antibody Diluent with Background Reducing Components (Dako/Agilent catalog number S3022) at 0.25 μm/mL. Immunohistochemistry is performed on a Dako Autostainer Link 48/PT Link Incubator. Deparaffinization with the Link 48/PT Link Incubator is accomplished at 97° C. for 20 minutes. Target retrieval is next accomplished with immersion of the unstained slides into EnVision™ FLEX Target Retrieval Solution High pH (Dako) on the Dako Link48/PT Link Incubator. Following a rinse in RT EnVision™ FLEX Wash Buffer (1×), specific immunohistochemical staining with the 2B3 antibody is accomplished by FLEX Peroxidase Block for 5 minutes, application of the 0.25 ug/mL concentration of anti-human PDGFRβ antibody 2B3 with incubation for 60 minutes, followed by FLEX/HRP application and incubation for 20 minutes, then application of FLEX DAB+ Substrate Chromogen for 10 minutes, and finally FLEX hematoxylin for 5 minutes. Ready-to-use FLEX Mouse Negative Control (Dako/Agilent catalog number IR750) is performed alongside PDGFRβ staining and used as a quality control (negative control) for the assay. Stained slides are then evaluated by trained personnel using a brightfield microscope.

LMS = assay: Median overall survival in LMS patients by PDGFRβ tumor status; assay type: in vivo, human; conditions: for OS HR: LMS female patients; for Hazard Ratio, overall survival / Hazard Ratio (95% CI), overall survival: Olaratumab + Doxorubicin vs Placebo + Doxorubicin; for OS HR adjusted for ECOG PS: adjusting for ECOG PS
[2] = PDGFRβ negative and PDGFRα positive tumor status
[3] = LMS patients excluding PDGFRβ positive females
[4] = LMS patients, PDGFRβ negative tumor status
[5] = LMS patients, PDGFRβ positive tumor status

For “LARTRUVO®: an antibody that specifically binds human PDGFRα”, the “therapeutic endpoints in clinical trials” value (soft tissue sarcoma) is listed as “failed to meet certain therapeutic endpoints”.

For “Olaratumab + Doxorubicin: olaratumab (antibody that binds human PDGFRα) in combination with doxorubicin, followed by olaratumab monotherapy”, the “median OS” value ([1]; PDGFRα negative tumor status) was 23.6 months, the “median OS” value ([1]; PDGFRα positive tumor status) was 17.2 months and the “median OS” value [1, 2] was 28.5 months. The “Median OS months” value ([1]; PDGFRβ negative tumor status) was 28.32 months, the “HR (95% CI), overall survival” value ([1]; PDGFRβ negative) was 0.85 (0.54-1.33) and the “HR (95% CI), overall survival” value ([1]; PDGFRβ negative, listed as investigational cohort) was 0.85. The “Median OS months” value ([1]; PDGFRβ positive tumor status) was 18.79 months, the “Median OS months” value ([1]; PDGFRβ positive tumor status, listed as investigational cohort) was 18.8 months and the “HR (95% CI), overall survival” value ([1]; PDGFRβ positive) was 1.10 (0.84-1.44). The “OS HR” value (LMS; PDGFRβ negative tumor status) was 0.55, the “OS HR” value (LMS; PDGFRβ positive tumor status) was 1.34 and the “Median OS months” value (LMS; [3]) was 28.5 months. The “Hazard Ratio, overall survival” value (LMS; [3]) was 0.60; p = 0.035, the “Hazard Ratio, overall survival” value (LMS; LMS patients excluding PDGFRβ positive females, listed as investigational cohort) was 0.60 and the “Median OS months” value (LMS; [4]) was 29.11 months. For the same substance, the “Hazard Ratio (95% CI), overall survival” value (LMS; LMS patients, PDGFRβ negative) was 0.65 (0.33, 1.25), the “Hazard Ratio (95% CI), overall survival” value (LMS; LMS patients, PDGFRβ negative, listed as investigational cohort) was 0.65 and the “Median OS months” value (LMS; [5]) was 20.14 months. The “Hazard Ratio (95% CI), overall survival” value (LMS; LMS patients, PDGFRβ positive) was 1.05 ((0.71, 1.55), the “Hazard Ratio (95% CI), overall survival” value (LMS; LMS patients, PDGFRβ positive, listed as investigational cohort) was 1.05 and the “OS HR adjusted for ECOG PS” value (LMS; PDGFRβ negative women with LMS) was 0.55. The “OS HR adjusted for ECOG PS” value (LMS; PDGFRβ positive women with LMS) was 1.34.

With “doxorubicin [Placebo + Doxorubicin, reference compound]” the “median OS” value ([1]; PDGFRα negative tumor status) was 21.9 months, the “median OS” value ([1]; PDGFRα positive tumor status) was 19.1 months and the “median OS” value [1, 2] was 20.6 months. For the same substance, the “Median OS months” value ([1]; PDGFRβ negative tumor status) was 20.57 months, the “Median OS months” value ([1]; PDGFRβ positive tumor status) was 19.88 months and the “Median OS months” value ([1]; PDGFRβ positive tumor status, listed as control cohort) was 19.9 months. The “Median OS months” value (LMS; [3]) was 20.9 months, the “Median OS months” value (LMS; [4]) was 21.88 (16.72, 35.55) months and the “Median OS months” value (LMS; LMS patients, PDGFRβ negative tumor status, listed as control cohort) was 21.88 months. For the same substance, the “Median OS months” value (LMS; [5]) was 21.39 (15.57, 24.57) months and the “Median OS months” value (LMS; LMS patients, PDGFRβ positive tumor status, listed as control cohort) was 21.39 months.
